Assay results from the NIST ThermoML archive (doi:10.1021/je0342769).
Several values for one entry are separate records, joined by “and”; a condition that tells them apart may be missing. Equal values may be shown once.

Conditions: Liquid, Closed cell (Static) method

FC(C(F)(F)F)C(F)(F)F [1,1,1,2,3,3,3-heptafluoropropane]
Conditions | vapor or sublimation pressure
253.31 K | 86.81 kPa
253.32 K | 86.83 kPa
253.33 K | 86.86 kPa
255.21 K | 94.46 kPa
257.26 K | 103.23 kPa and 103.26 kPa
259.59 K | 114.05 kPa
261.28 K | 122.37 kPa
263.26 K | 132.72 kPa
265.17 K | 143.42 kPa
267.15 K | 155.12 kPa and 155.14 kPa
269.19 K | 167.93 kPa
271.14 K | 181.01 kPa
273.13 K | 195.16 kPa
273.14 K | 195.21 kPa
273.16 K | 195.29 kPa
275.15 K | 210.31 kPa
275.17 K | 210.44 kPa
275.18 K | 210.49 kPa
276.99 K | 224.91 kPa
279.19 K | 243.27 kPa
281.14 K | 260.66 kPa
283.18 K | 279.74 kPa
285.18 K | 299.49 kPa
285.19 K | 299.62 kPa
287.14 K | 319.89 kPa
289.07 K | 340.97 kPa
289.1 K | 341.37 kPa
291.06 K | 363.71 kPa
291.16 K | 365.01 kPa
293.04 K | 387.68 kPa
293.15 K | 388.98 kPa
293.23 K | 390.05 kPa
295.22 K | 415.24 kPa
295.32 K | 416.61 kPa
297.21 K | 441.61 kPa
297.22 K | 441.76 kPa
299.07 K | 467.46 kPa
299.16 K | 468.9 kPa
301.54 K | 503.72 kPa
303.66 K | 536.19 kPa
305.19 K | 560.59 kPa
307.19 K | 593.83 kPa
309.51 K | 634.38 kPa
311.16 K | 664.23 kPa
313.13 K | 701.36 kPa
315.11 K | 740.37 kPa
317.15 K | 781.99 kPa
317.5 K | 789.45 kPa
319.51 K | 832.46 kPa
321.16 K | 869.25 kPa
323.13 K | 914.73 kPa
323.17 K | 915.9 kPa
325.11 K | 962.18 kPa
329.17 K | 1065.4 kPa
333.69 K | 1190.1 kPa
339.17 K | 1355.8 kPa
344.87 K | 1545.3 kPa
349.82 K | 1725.8 kPa
353.22 K | 1859.3 kPa
357.13 K | 2022.6 kPa
361.12 K | 2201.1 kPa
364.88 K | 2380.9 kPa
369.16 K | 2600 kPa
373.22 K | 2825.1 kPa and 2825.2 kPa and 2825.3 kPa

FC(F)CC(F)(F)F [1,1,1,3,3-pentafluoropropane]
Conditions | vapor or sublimation pressure
255.22 K | 21.93 kPa
259.37 K | 27.28 kPa and 27.27 kPa
263.27 K | 33.25 kPa and 33.24 kPa
267.31 K | 40.47 kPa
271.03 K | 48.26 kPa
275.31 K | 58.66 kPa
279.32 K | 69.99 kPa and 69.98 kPa
279.33 K | 69.98 kPa and 69.99 kPa
283.2 K | 82.37 kPa and 82.36 kPa
285.08 K | 89.02 kPa and 89.05 kPa
288.91 K | 103.68 kPa and 103.67 kPa
291.16 K | 113.41 kPa and 113.43 kPa
291.17 K | 113.42 kPa
292.62 K | 119.97 kPa and 120.01 kPa
295.55 K | 134.37 kPa and 134.41 kPa
298.31 K | 149.04 kPa and 149.05 kPa
300.16 K | 159.38 kPa
313.13 K | 250.2 kPa and 250.26 kPa and 250.34 kPa
317.43 K | 287.67 kPa and 287.72 kPa and 287.84 kPa
321.77 K | 329.9 kPa and 329.87 kPa
327.34 K | 390.52 kPa and 390.61 kPa
333.55 K | 467.79 kPa
344.96 K | 639.43 kPa
347.8 K | 688.83 kPa and 688.9 kPa
351.54 K | 757.91 kPa and 757.93 kPa and 757.86 kPa
354.13 K | 808.71 kPa
354.15 K | 809.38 kPa
357.7 K | 883.2 kPa
362.21 K | 984.31 kPa and 984.35 kPa
364.47 K | 1038.2 kPa
367.1 K | 1103.6 kPa
367.11 K | 1103.6 kPa
371.11 K | 1209.3 kPa
371.12 K | 1209.3 kPa
374.81 K | 1313.1 kPa
374.95 K | 1317.3 kPa
377.03 K | 1378.9 kPa
381.38 K | 1514.3 kPa
384.5 K | 1617.4 kPa
388.32 K | 1751.2 kPa
393.64 K | 1950.8 kPa
